This is an account of results in patent US20180140578A1, “METHODS AND COMPOSITIONS FOR THE DIAGNOSIS AND SELECTIVE TREATMENT OF CANCER” (Board of Regents of the University of Texas System, priority 2016, published 2018).

The subject of series [1] is TRIM27 mRNA and RBM3 mRNA. The series can be described thus: PCR validation of splicing changes. The format is cell-based, human. As to the method:
RNAs isolated from indisulam or siRNA treated cells were first treated with Turbo DNase (Life Technologies) to remove contaminating genomic DNA. After RNA cleanup with Quick-RNA MiniPrep kit (Zymo Research), 500 ng of total RNAs was converted into cDNAs with Multiscribe reverse transcriptase (Life Technologies). Exon skipping in TRIM27 was visualized by PCR amplification with 5′-[…]-3′ (SEQ ID NO: 3) and 5′-[…]-3′ (SEQ ID NO: 4) from cDNAs. […] Relative RNA levels were calculated based on 2^−ct method using Cyclophilin mRNA for normalization. The following primers were used for quantification of mRNA levels: […]

In another series the target is T1, RBM39 G268V-3xFLAG (Homo sapiens, UniProt Q66K64).
T1 construct: expressed in transfected cells; host or cells: 293T
The series is described as follows: In vivo polyubiquitination of RBM39 G268V. The format is cell-based. Particulars: following indisulam treatment. On the procedure:
cDNAs encoding RBM39-3xFLAG, RBM39 G268V-3xFLAG, and DCAF15-V5 were cloned into the pCDNA3.1+vector. pCMV 8XHis Ub was a gift from William Kaelin (Dana Farber Cancer Institute). 0.4 million 293T cells were seeded per well on 6-well plates and allowed to attach overnight. 250 ng of pCMV 8XHis Ub, 500 ng of pCDNA3-DCAF15-V5, 10 ng of either pCDNA3-RBM39-3xFLAG or pCDNA3-RBM39 G268V-3xFLAG were transfected. […] Cells were lifted from the plates by pipetting, pelleted by centrifugation, and washed once with PBS. Purification of His-Ub tagged proteins was performed as described (5).

The subject of a further series is human cancer cell lines. Conditions: cited from earlier work.
Series [2] has as its system tumors derived from parental HCT-116 cells. The series can be described thus: Mouse xenograft model, parental HCT-116. The format is in vivo, Nod-Scid IL-2Rγ KO mice. On the procedure:
All animal work was approved by the Institutional Animal Care and Use Committee at UTSW. UTSW is accredited by the Association for Assessment and Accreditation of Laboratory Animal Care International (AAALAC). Animals were obtained from the UTSW Breeding Core Facility. Nod-Scid IL-2Rγ KO mice were implanted with 5 million parental HCT-116 cells or HCT-116 cells expressing RBM39 G268V in a volume of 0.1 ml in the left flank. Tumor volumes were measured every 2-4 days with calipers. Volume is calculated as (L*W^2)*3.14)/6.

The subject of series [3] is H1155 cells transduced with DCAF15-3xFLAG cDNA. The series can be described thus: Cell viability assay, DCAF15 overexpression. The format is cell-based, human. Conditions: H1155 cells expressing higher than normal levels of DCAF15.
The subject of series [4] is pre-mRNA splicing in HCT-116 cells harboring RBM39 G268V. The series can be described thus: RNA-seq analysis of splicing changes, RBM39 G268V. The format is cell-based, human. Conditions: 2 μM indisulam. The source says:
RNAs were extracted using Quick-RNA MiniPrep kit (Zymo Research). After cleaning up genomic DNA contaminant with Turbo DNase (Life Technologies) and rRNA depletion, strand-specific cDNA libraries were generated using the TruSeq Stranded mRNA Sample Prep Kit (IIlumina) and were subjected to high throughput sequencing using
HiSeq2500 platform (Illumina) with 100-bp single-end reads. NGS QC Toolkit (v2.3.1) (49) was used to check the sequencing quality, and high-quality reads were aligned by TopHat (v2.0.8) (50) to human reference genome (hg19) along with the gene annotation data downloaded from Illumina's iGenomes (support.illumina.com/sequencing/sequencing_software/igenome.ilmn). The insert-size metrics required in TopHat execution and the correctness of strand specificity were estimated by mapping reads to human transcript sequences using Bowtie (v2.1.0) (51) and Picard-tools (v1.99) (picard.sourceforge.net). The htseq-count script distributed with the HTSeq Python package (0.6.1) (pypi.python.org/pypi/HTSeq) was employed for counting reads in genes considering the coding strands. Source data for RNA sequencing data is available under NCBI SRA accession SRP096666.
For the stringent detection of differential skipped exons and retained introns, a custom program called SpliceFisher was developed and it is downloadable at github.com/jiwoongbio/SpliceFisher. […]

The test system of another series is H650. The series can be described thus: IC50 assay, NSCLC cell lines (Cell Titer Glo, total ATP). Type of series: cell-based, human. Particulars: U2AF1 WT (listed twice). On the procedure: (§1) Cells were plated at ˜15% confluence in a media comprising 5% concentration of fetal bovine serum supplemented with RPMI, which included 2 mM L-Glutamine in a 96 well dish. […] Following three days of incubation in a 5% CO2 incubator, the total ATP in each well was quantified using Cell Titer Glo (Promega). […] The solid lines represent the medians.
For orientation: ATP-based viability assays read luminescence as a measure of living cells.

In another series the test system is H2073. Described as above. Type of series: cell-based, human. As to the method:
as §1

The target of a further series is T2, RBM39 (Homo sapiens, UniProt Q14498+Q66K64).
T2 construct: triggers the degradation of RBM39 in parental HCT-116 cells; endogenous in cells; host or cells: HCT-116
The series is described as follows: RBM39 degradation in cells (western blotting). Conditions: HCT-116 cells; dose dependent, evident as early as two hours after treatment. Type of series: cell-based. As to the method: Proteins were resolved on SDS-PAGE and transferred to 0.5 μm nitrocellulose membranes. Membranes were blocked in 5% milk TBST for 30 min, and then anti-RBM39 antibodies (HPA001591, Sigma-Aldrich) were added in 5% milk (1:5000) and incubated on a shaker overnight at 4° C. After three 5 min washes with TBST, membranes were incubated with HRP-conjugated goat anti-rabbit secondary antibody (Bio-Rad) for 2 hr at room temperature. After three 5 min washes with TBST, membranes were developed with ECL (enhanced chemiluminescence) substrates.

Each structure is given as a SMILES string. “Also recorded” adds a separate entry of the source. Where two headings read alike, the source gives them in different places.

By IC50 is commonly meant the point on the concentration scale where inhibition reaches its midpoint. Consider `NS(=O)(=O)c1ccc(S(=O)(=O)Nc2cccc3c(Cl)c[nH]c23)cc1` [Indisulam, indisulam], for which the “splicing of TRIM27 mRNA (RT-PCR)” value in [1] is recorded as “dose-dependent exon skipping”. For the same compound, the “splicing of RBM3 mRNA (RT-PCR)” value in series [1] (indisulam dose-dependent) was “intron retention”. Further, the “RBM39 G268V ubiquitination” value at RBM39 G268V-3xFLAG is given as “not ubiquitinated”. Also, in the series on human cancer cell lines, the “effect on cell cycle” value was “cell cycle arrest in the G1 phase followed by cell death”. For the same compound, the tumor response result in series [2] (25 mg/kg indisulam intravenous once a day for eight days) is “complete regression; also recorded: regress”. Also, the “Average maximal weight loss from start of therapy to 1 day post final dose” value in [2] (parental HCT-116 xenograft, 25 mg/kg once a day for eight days) is listed as 5.2%. Also, in [3], the “sensitivity vs mock treated cells” value was “more sensitive”. In addition, the exon skipping events in series [4] (HCT-116 RBM39 G268V) amounted to 3. Besides, in series [4] (cells expressing the RBM39 G268V allele), the intron retention events result was “no intron retention event”. Also, the “Indisulam IC50 (log 10)” value in the series on H650 (H650) is on record as −4.839 (log 10) (M). The IC50 in the series on H650 (Homo sapiens, NCI-H650, read-out: Indisulam IC50 (log 10), H650 (converted)) is 13.6 µM; with H650 (Homo sapiens, NCI-H650, read-out: Indisulam IC50, H650), 13.6 µM; with H650 (read-out: Indisulam IC50, H650), 14.5 µM; in the series with H2073 (Homo sapiens, NCI-H2073, read-out: Indisulam IC50 (log 10) (converted), U2AF1 WT) it was 2570 nM; in the series with H2073 (read-out: Indisulam IC50, U2AF1 WT) it was 2570 nM. Besides, the “amount of RBM39 protein” value at RBM39 is “reduced”.
